Results from patent US8097650B2, “Method of treating a condition associated with phosphorylation of TASK-1” (The Trustees of Columbia University In The City of New York, priority 2005, dated 2012).

Assays:
Assay type in all cases: cell-based
quiescent myocytes = assay: Spontaneous activity in quiescent mouse ventricular myocytes (current clamp); conditions: C-PAF 185 nM
Protocol: (§1) Adult mice, 2-3 months old, were anesthetized with ketamine/xylazine and their hearts were removed according to protocols approved by the Columbia University-IACUC. Experiments were performed on single rod-shaped, quiescent ventricular myocytes dissociated using a standard retrograde collagenase perfusion (Kuznetsov V et al. (1995) Circ Res 76: 40-52) from hearts of mice that were either wild-type (WT), or PAFR knockouts (KO). Both WT and KO mice were bred on a C57/B16 background. The derivation of the KO mice has been described previously (Hoffman, B F et al.(1996) J Cardiovasc Electrophysiol 7:120-133).
Prior to electrophysiological measurements, cells were placed into the perfusion chamber and superfused at room temperature with Tyrode's buffer (in mM: NaCl, 140; KCl, 5.4; CaCl2 1; MgCl2, Hepes, 5; Glucose, 10; pH 7.4). The whole-cell patch clamp technique was used with pipettes having resistances of 1.5-3 MΩ (intracellular solution, in mM: aspartic acid, 130; KOH, 146; NaCl, 10; CaCl2, 2; EGTA, 5; Hepes, 10; MgATP, 2; pH 7.2). Solutions of C-PAF, the PAFR antagonist, CV-6209 (Biomol) and the PKC inhibitor, bisindolylmaleimide I (BIM I; Calbiochem) were prepared in water and diluted in Tyrode's before use. […] A custom-made fast perfusion device was used to exchange the solution around the cell within 1 s (DiFrancesco et al. (1986) J Physiol 377: 61-88).
Current and voltage protocols were generated using Clampex 7.0 software applied by means of an Axopatch 200B amplifier and a Digidata 1200 interface (Axon Instruments). During voltage clamp, steady state current traces were acquired at 500 Hz and final filtered at 10 Hz. During current clamp, membrane voltage was acquired at 5 KHz and filtered at 1 KHz. Ramp clamps were conducted by imposing a voltage ramp (14 mV/s) at a 500 Hz acquisition rate with 1 kHz filtering. Data were analyzed using pCLAMP 8.0 (Axon) and Origin 6.0 (Microcal) and are presented as mean±SEM. Steady-state current was determined by computer calculation of average current over a time period of at least 5 s. In all experiments, the n value indicates the number of myocytes studied, and represents pooled data from at least 2 (voltage clamp) or 3 (current clamp) animals. Student's t-test, one-way ANOVA and χ^2 tests were used; a value of p<0.05 was considered statistically significant. Records have been corrected for the junction potential, which was measured to be 9.8 mV.

[1] = tested on: mouse ventricular myocytes; assay: Action potentials in paced mouse ventricular myocytes (current clamp); conditions: C-PAF 185 nM
Protocol: as §1
Prior to electrophysiological measurements, cells were placed into the perfusion chamber and superfused at room temperature with Tyrode's buffer (in mM: NaCl, 140; KCl, 5.4; CaCl2 1; MgCl2, Hepes, 5; Glucose, 10; pH 7.4). […]
Current and voltage protocols were generated using Clampex 7.0 software applied by means of an Axopatch 200B amplifier and a Digidata 1200 interface (Axon Instruments). […] Data were analyzed using pCLAMP 8.0 (Axon) and Origin 6.0 (Microcal) and are presented as mean±SEM. Steady-state current was determined by computer calculation of average current over a time period of at least 5 s. […] Records have been corrected for the junction potential, which was measured to be 9.8 mV.

[2] = tested on: mouse ventricular myocytes; assay: Repolarization abnormalities in mouse ventricular myocytes paced at 1 Hz with PKCε peptides
Protocol: Mouse ventricular myocytes were isolated using a retrograde coronary perfusion method previously published (Kuznetsov V et al. (1995) Circ Res 76: 40-52). All the experiments were carried out according to the guidelines issued by the IACUC of Columbia University. Adult mice 2 or 3 months old, were anaesthetized with a xylazine and ketamine mix and heparinized, the heart was quickly removed and the ascending aorta was connected to the outlet of a Langendorff column and perfused with 20-25 ml of a buffer solution (37° C.) containing (mM):NaCl, 112; KCl, 5.4; NaHCO3, 4.2; MgCl2, 1.6; HEPES, 20; glucose, 5.4; NaH2PO4, 1.7; taurine, 10; L-glutamine, 4.1; MEM amino acids solution, 2%; MEM vitamin solution, 1%; adjusted to pH 7.4, and equilibrated with 100% O2. Next, the heart was perfused with an enzyme solution containing collagenase (0.2 mg/ml; Worthington Type II) and trypsin (0.04 mg/ml) at 35° C. for 10-12 min. After this perfusion, the atria were removed and the ventricles minced and transferred to a 50 ml flask with an enzyme solution containing collagenase (0.45 mg/ml), trypsin (0.08 mg/ml), Ca^2+ (0.75 mM) and bovine serum albumin (BSA; 4.8 mg/ml). The flask was shaken vigorously for 5-10 min at 32° C. before the supernatant was removed and the cells were collected by centrifugation, this operation was repeated two or three times and additional disaggregated cells were collected. After centrifugation, the myocytes were resuspended in the buffer solution containing Ca^2+ (0.75 mM) and BSA and stored at room temperature until use. Rod-shaped, Ca^2+-tolerant myocytes, obtained with this procedure, were used within 6 h of dissociation. Measurements were performed only on quiescent myocytes with clear striations
The myocyte suspension or the coverslip with CHO cells was placed into a perfusion chamber, mounted on the stage of an inverted microscope. Unless otherwise indicated, CHO cells were superfused at room temperature with standard external Tyrode's buffer, containing (mM): NaCl, 140; KCl, 5.4; CaCl2, 1; MgCl2, 1; HEPES, 5; glucose, 10; adjusted to pH 7.4. Recordings were begun after the current reached a stable baseline (usually 3 to 4 min after initial cell rupture). In myocytes, TASK-1 current is small and exists in the presence of numerous larger K^+ currents. In order to increase the inward component of TASK-1 current and to block other potassium currents in myocytes, a modified high K^+ external solution (modified Tyrode's) was used to reduce outward rectification of TASK-1 current. The composition of this solution-was (in mM): NaCl, 100; KCl, 50; CaCl2, 1; MgCl2, 1; HEPES, 5; glucose, 10; tetraethylammonium (TEA), 1; CsCl, 5; adjusted to pH 7.4. Membrane potential and current were measured in the whole cell configuration using borosilicate glass pipettes with a tip resistance between […] and filled with a pipette solution containing (mM): aspartic acid, 130; KOH, 146; NaCl, 10; CaCl2, 2; EGTA, 5; HEPES, 10; MGATP, 2; pH 7.2. The stock solutions of C-PAF and of the PKC inhibitor, bisindolylmaleimide (BIM-I; Calbiochem), were prepared in water and diluted to the final concentrations in Tyrode's or modified Tyrode's, as appropriate. The PKC activator, PMA, was prepared in DMSO and then diluted in Tyrode's. […] Myocytes treated with the peptides were monitored continuously beginning immediately after rupture to detect the occurrence of any arrhythmias during dialysis of the peptide. Application of C-PAF to cells treated with the inhibitor peptide was started after the peptide had been permitted to dialyse into the cell (8-10 min after rupture for CHO or 10-12 min after rupture for myocytes).
The current and the voltage protocols were generated using Clampex 8.0 software applied by means of an Axopatch 200-B and a Digidata 1200 interface (Axon Instruments). In current clamp mode, for recording action potentials, the signals were filtered at 1 KHz (low pass Bessel filter) and acquired at a sampling rate of 5 KHz. […]

In the case of `CCCCCCCCCCCCCCCCOC[C@H](COP(=O)([O-])OCC[N+](C)(C)C)OC(=O)NC` [C-PAF, carbamyl-platelet-activating factor], the “PAFR KO myocytes with no response” value (quiescent myocytes) was 7 of 9, the “quiescent WT myocytes sensitive to C-PAF superfusion” value (quiescent myocytes) was 11 of 11 and the “initial delay of the effect” value (quiescent myocytes; quiescent WT myocytes) was 96 ± 11 s. For the same molecule, the “cells in which membrane potential returned to normal during agonist perfusion” value ([1]; 3 min perfusion) was 8 of 9, the “delay before C-PAF-evoked responses” value ([1]; paced WT myocytes) was 94 ± 21 s and the “cells with repolarization abnormalities” value ([2]; C-PAF 2 min, no peptide in pipette) was 5 of 7. The repolarization abnormalities ([2]; C-PAF, PKCε-specific inhibitor peptide 100 nM in pipette) was “failed to induce repolarization abnormalities in any of the 8 cells” and the “cells with abnormalities during repolarization” value ([2]; C-PAF, scrambled peptide 100 nM in pipette) was 14 of 19.
